Assay results from patent US20240254135A1, “POLYPHENOL COMPOUNDS” (Epirium Bio Inc., priority 2022, published 2024).

Assays:
[1] = Pharmacokinetics: quantitative determination in mice brains (LCMS); format: in vivo, C57BL/6 Mice; conditions: mice brain, 10 mg/kg PO single dose, 10% NMP vehicle; for Tmax: C57BL/6, mouse
Experimental: C57BL/6 Mice, Age 7-9 weeks, body weight range 20-25 g were used. The mice were fasted overnight. Mice were dosed once a day for a single day at 10 mg/kg, 10 mg/kg. 6 time-points were used for whole blood. 10% NMP was used as a vehicle. 9 animals were used per treatment, with three groups of three animals each. Group 1 had time points at 15 and 60 minutes, Group 2 had time points at 30 and 120 minutes, and Group 3 had time points at 90 and 240 minutes. An Oral (PO) route was used. Plasma and brain samples were collected (brain sample collected at terminal time point). Plasma was collected through the centrifugation of whole blood at 10,000 rpm for 10 minutes at 4° C. Samples were stored at −80° C. until processing.
1.00 mg/mL in 100% MeOH PP vials (prepared at RT yellow light) at 2-8° C. were used as stock solution. 12.22-50000 ng/mL using 80% MeOH PP vials (prepared at RT yellow light) at 2-8° C. were used as working solution. 0.48-2000 ng/ml (prepared at RT yellow light) was used for the curve range. For Compounds 75b and 78a, 1.00 mg/mL of Compound 79 in 100% methanol Ria vials (Prepared at RT yellow light) was used as IS stock solution, and 60 ng/ml of Compound 79 in 80% methanol (Prepared at RT yellow light) was used as IS working solution. For Compound 76b, 1.00 mg/mL of Compound 44 in 100% methanol Ria vials (Prepared at RT yellow light) was used as IS stock solution, and 60 ng/ml of Compound 44 in 80% methanol (Prepared at RT yellow light) was used as IS working solution. A linear, 1/x2 fit type was used. The injection volume was 15 μL. Mobile Phase A was 0.1% Formic Acid in water at room temperature. Mobile Phase B was 100% methanol at room temperature. R0 wash solution was 80% methanol at room temperature. R^3 wash solution was IPA/MeOH/ACN/water (1:1:1:1) at room temperature. The column was Agilent Eclipse 50*2.1 mm 1.8 μm and the instrument was Shimadzu LC-40 UPLC and AB Sciez 6500+ with LCMS002.
For Compound 75b, 100 mg of brain tissue were weighed, 400 μL of Ice cold PBS was added, and the sample was homogenated using a polytron homogenizer. Before starting the experiment the blade was cleaned with NS, Methanol, Methanol:Water (50:50) followed by NS. Using a pipette with Methanol-rinsed pipette tips, 50 μL of each sample (calibration curve sample, QC samples and blank matrix) was aliquot to labeled 12×75-mm glass tubes. Using Methanol-rinsed pipette tips, 5.0 μL of IS of conc. 60 ng (Compound 79) was added to each standard and samples except Blank. All tubes were mixed on a multi-tube vortex for approximately 30 seconds. 1 ml of Ethyl Acetate was added. All tubes were mixed on a multi-tube vortex for approximately 5 minutes then centrifuged for 10 min at 5,000 rpm, 4° C. The sample was kept in methanol containing dry ice for few seconds to freeze the Aqueous layer (flash freeze method). The upper organic layer was poured from the frozen tubes into the labeled 12×75-mm glass tubes then evaporated to dryness under nitrogen using Liquid Evaporator (30° C., −15 psi, ˜ 10 mins). 200 μl of reconstitution solution (10 mM Ammonium Formate:MeOH (40:60 v/v) was added into each tube, which was then vortexed for 30 seconds and transferred to amber glass injection vials for injection. At the terminal time points, animals were euthanized after blood sample collection. Their skulls were opened and whole brains were separated and collected in previously labeled tubes. The tubes were then immediately transferred into liquid nitrogen container for snap freezing. Later the samples were stored at −80° C.
For Compounds 76b and 78a, 100 mg of brain tissue were weighed, 400 μL of Ice cold PBS was added, and the samples were homogenated using a polytron homogenizer. Before starting the experiment the blade was cleaned with NS, Methanol, Methanol:Water (50:50) followed by NS. […]

[2] = biological target: T1, mitochondrial ATP synthase (Mus musculus, UniProt P56480+Q03265); experiment: Maximal ATP hydrolysis capacity in frozen heart mitochondria; format: biochemical; conditions: frozen mitochondria (FIGS. 3 and 4)
T1 construct: from tissue; host or cells: mouse heart, isolated mitochondria (fresh or frozen)
Experimental: ATP hydrolysis capacity or state 4 acidification was measured using Seahorse XF96 as described in Divakaruni et al. (2018) Anal Biochem 552:60-65 and Acin-Perez et al. (2021) Life 11(9):949, in MAS (70 mM Sucrose, 220 mM Mannitol, 5 mM KH2PO4, 5 mM MgCl2, 1 mM EGTA, 2 mM HEPES; pH 7.2). Plates were loaded with 0.75-1.5 μg of mouse heart mitochondria, or 25 μg of cell lysate. Cell lysates were prepared by subjecting the samples to 4 cycles of free thaw (liquid nitrogen—37° C. water bath) before measuring protein concentration. When assessing compounds effect on respirometry, the compounds were added in MAS after sample centrifugation. Initial respiration of the samples was sustained by the addition of 5 mM succinate+2 μM rotenone in the MAS after centrifugation. Injections were performed at the following final concentration in the well: Antimycin A (2 μM), oligomycin (5 μM), FCCP (1 μM), ATP (20 mM). To assess maximal ATP concentration, ATP was injected consecutively.
An additional assay was developed to determine the maximal ATP hydrolysis capacity in frozen mitochondria. Maximal ATP hydrolytic capacity was assessed in frozen heart mitochondria where mitochondrial respiration is inhibited by Antimycin A and maximal ATP hydrolysis is driven by co-injection of FCCP and ATP, followed by inhibition in the presence of oligomycin.

| Structure (SMILES) | Tmax [1] [h] | AUC0-4 [1] [hr*g/tissue] | decrease in hydrolysis [2] [%] |
| --- | --- | --- | --- |
| COc1cc(C2Oc3ccccc3CC2O)ccc1F (single isomer, unassigned) [Compound 75b, 2-(4-fluoro-3-methoxyphenyl)chroman-3-ol] | 1 | 238.5399 | – |
| Oc1cc(O)c2c(c1)OC(c1ccc(O)c(F)c1)C(O)C2 (single isomer, unassigned) [Compound 76b, 2-(3-fluoro-4-hydroxyphenyl)chromane-3,5,7-triol] | 1 | 5.993 | – |
| Oc1ccc2c(c1)OC(c1ccc(O)c(C(F)(F)F)c1)C(O)C2 (single isomer, unassigned) [Compound 77b, 2-(4-hydroxy-3-(trifluoromethyl)phenyl)chromane-3,7-diol] | – | – | 25 |
| Oc1cc(O)c2c(c1)OC(c1ccccc1)C(O)C2 (single isomer, unassigned) [Compound 78a, 2-phenylchromane-3,5,7-triol] | 1 | 29.135 | – |
